Measurements published in patent US7727965B2, “C-glycosylisoflavones having alkylaminoalkoxyl substituent, preparation and use of the same” (Hainan Yangpu New & Special Medicine Co., Ltd., priority 2003, dated 2010).

Assays:
Kunming mice = assay: Normal pressure hypoxia-resistance test in mice; assay type: in vivo; conditions: 60 mg/Kg intraperitoneal, 0.5 hours before sealing in 250 ml bottles, examples tested as hydrochloride salts
Method: This test was carried out by a common method familiar to those skilled in the art. 32 Kunming mice (16 males vs. 16 females, body weights ranging from 18 to 20 g) were randomly divided into a control group and a administration group (each group having 16 animals), wherein the dosage was 60 mg/Kg mouse and 0.2 ml for each animal. After 0.5 hours of the intraperitoneal injection of test solutions, the mice were placed and sealed in 250 ml wide-mouthed bottles with ground stoppers. The times of death were recorded. Statistical analysis was conducted separately with respect to the blank control group and puerarin group, and P values were calculated.

[1] = 568 patients administered with puerarin; cited from earlier work
[2] = cited from earlier work
[3] = cited from earlier work; remark: listed apart in the source

| Compound | Time to death (Kunming mice) [min] | further results |
| --- | --- | --- |
| O=c1c(-c2ccc(OCCCN3CCOCC3)cc2)coc2c([C@@H]3O[C@H](CO)[C@@H](O)[C@H](O)[C@H]3O)c(O)ccc12 [Example 4, 4′-(3-N-morpholinylpropoxy)-7-hydroxy-8-β-D-(1-deoxyglucosyl)isoflavone] | 75.3 ± 7 | – |
| CCN(CC)CCCOc1ccc(-c2coc3c([C@@H]4O[C@H](CO)[C@@H](O)[C@H](O)[C@H]4O)c(O)ccc3c2=O)cc1 [Example 6, 4′-(3-N-diethylaminopropoxy)-7-hydroxy-8-β-D-(1-deoxyglucosyl)-isoflavone] | 73.5 ± 9 | – |
| O=c1c(-c2ccc(O)cc2)coc2c([C@@H]3O[C@H](CO)[C@@H](O)[C@H](O)[C@H]3O)c(O)ccc12 [puerarin, 4′,7-dihydroxy-8-β-D-C-glycosylisoflavone] | 48.3 ± 5 | total incidence rate of febrile [1]: 5.81%; oral bioavailability [2]: about 30%; solubility of puerarin in 4.3% PVP aqueous solution ([3]; 4.3% PVP aqueous solution): 1.332 g/100 ml; stability in an aqueous solution ([3]; relatively high pH value): poor stability; solubility of puerarin in water ([3]; water): 0.462 g/100 ml |
| CCCN(CCC)CCCOc1ccc(-c2coc3c([C@@H]4O[C@H](CO)[C@@H](O)[C@H](O)[C@H]4O)c(O)ccc3c2=O)cc1 [Example 7, 4′-[3-N-di(n-propyl)aminopropoxy]-7-hydroxy-8-β-D-(1-deoxyglucosyl)-isoflavone] | 69.8 ± 5 | – |
| CCN(CC)CCCCOc1ccc(-c2coc3c([C@@H]4O[C@H](CO)[C@@H](O)[C@H](O)[C@H]4O)c(O)ccc3c2=O)cc1 [Example 14, 4′-(4-N-diethylaminobutoxy)-7-hydroxy-8-β-D-(1-deoxyglucosyl)isoflavone] | 79.1 ± 8 | – |
| CN1CCN(CCCCOc2ccc(-c3coc4c([C@@H]5O[C@H](CO)[C@@H](O)[C@H](O)[C@H]5O)c(O)ccc4c3=O)cc2)CC1 [Example 17, 4′-(4-N-methylpiperazinylbutoxy)-7-hydroxy-8-β-D-(1-deoxyglucosyl)-isoflavone] | 59.8 ± 7 | – |
| CCN1CCN(CCCCOc2ccc(-c3coc4c([C@@H]5O[C@H](CO)[C@@H](O)[C@H](O)[C@H]5O)c(O)ccc4c3=O)cc2)CC1 [Example 18, 4′-(4-N-ethylpiperazinylbutoxy)-7-hydroxy-8-β-D-(1-deoxyglucosyl)-isoflavone] | 75.9 ± 6 | – |
